Laboratory results reported in patent US20230013669A1, “Antibacterial Treatment Using a Cannabinoid and an Active Agent” (priority 2019, published 2023).
“And” between values parts separate entries of the source, which are not always exact repeats. Equal entries are not always repeated.

Tested on: Acinetobacter baumannii ATCC 19606 (GN_034)
Experiment: Synergy of cannabidiol with cell-wall disrupting agent (CBD MIC in combination, FICI)
Assay type: cell-based
Conditions: for FICI range: CBD with Spero SPR206
Method: The compounds were stored short term at 4° C.
Analysis was performed using Microsoft Excel.

[1] = Example 6, GN_034, listed as CBD

C=C(C)C1CCC(C)=CC1c1c(O)cc(CCCCC)cc1O (stereo not shown) [Cannabidiol, 2-[3-methyl-6-(1-methylethenyl)-2-cyclohexen-1-yl]-5-pentyl-1,3-benzenediol]
FICI range (1st of 3 experiments): 0.25-8 | FICI range (3rd of 3 experiments): 1.5-16 | FICI (CBD with Spero SPR206 at 0.25 μg/mL, 1st of 3 experiments, CBD MIC taken as 256 μg/mL): 0.5 | FICI (CBD with Spero SPR206 at 0.25 μg/mL, 3rd of 3 experiments, CBD MIC taken as 256 μg/mL): 2 | FICI (CBD with Spero SPR206 at 0.5 μg/mL, 1st of 3 experiments, CBD MIC taken as 256 μg/mL): 1 | FICI (CBD with Spero SPR206 at 0.5 μg/mL, 3rd of 3 experiments, CBD MIC taken as 256 μg/mL): 3 | FICI (CBD with Spero SPR206 at 1 μg/mL, 1st of 3 experiments, CBD MIC taken as 256 μg/mL): 2 | FICI (CBD with Spero SPR206 at 1 μg/mL, 3rd of 3 experiments, CBD MIC taken as 256 μg/mL): 4.004 and 4.002 | FICI (CBD with Spero SPR206 at 2 μg/mL, 1st of 3 experiments, CBD MIC taken as 256 μg/mL): 4 | FICI (CBD with Spero SPR206 at 2 μg/mL, 3rd of 3 experiments, CBD MIC taken as 256 μg/mL): 8 | FICI (CBD with Spero SPR206 at 4 μg/mL, 1st of 3 experiments, CBD MIC taken as 256 μg/mL): 8 | FICI (CBD with Spero SPR206 at 4 μg/mL, 3rd of 3 experiments, CBD MIC taken as 256 μg/mL): 16 | FICI (CBD with Spero SPR206 at […], 1st of 3 experiments, CBD MIC taken as 256 μg/mL): 0.25 | FICI (CBD with Spero SPR206 at […], 3rd of 3 experiments, CBD MIC taken as 256 μg/mL): 1.5 | FICI (CBD with Ticarcillin at 2 μg/mL, Acinetobacter baumannii ATCC 19606): 0.625 | FICI (CBD with Ticarcillin at 4 μg/mL, Acinetobacter baumannii ATCC 19606): 1.0625 | FICI (CBD with Ticarcillin at 8 μg/mL, Acinetobacter baumannii ATCC 19606): 2 | FICI (CBD with Ticarcillin at 16 μg/mL, Acinetobacter baumannii ATCC 19606): 4 | FICI (CBD with Ticarcillin at 32 μg/mL, Acinetobacter baumannii ATCC 19606): 8 | FICI (CBD with Ticarcillin at 64 μg/mL, Acinetobacter baumannii ATCC 19606): 16 | FICI range (MIC table) (CBD with Ticarcillin, Acinetobacter baumannii ATCC 19606): 0.63-16 | CBD MIC with Cefepime (Cefepime at 4 μg/mL): 32 µg/mL | CBD MIC with Cefepime (Cefepime at 8 μg/mL): 16 µg/mL | CBD MIC with Cefotetan (Cefotetan at 4 μg/mL): >32 µg/mL | CBD MIC with Cefotetan (Cefotetan at 4 μg/mL, Acinetobacter baumannii ATCC 19606): >256 µg/mL | CBD MIC with Cefotetan (Cefotetan at 8 μg/mL): >32 µg/mL | CBD MIC with Cefotetan (Cefotetan at 8 μg/mL, Acinetobacter baumannii ATCC 19606): >256 µg/mL | CBD MIC with Cefotetan (Cefotetan at 16 μg/mL): >32 µg/mL | CBD MIC with Cefotetan (Cefotetan at 16 μg/mL, Acinetobacter baumannii ATCC 19606): >256 µg/mL | CBD MIC with Cefotetan (Cefotetan at 32 μg/mL): >32 µg/mL | CBD MIC with Cefotetan (Cefotetan at 32 μg/mL, Acinetobacter baumannii ATCC 19606): >256 µg/mL | CBD MIC with Cefotetan (Cefotetan at 64 μg/mL): >32 µg/mL | CBD MIC with Cefotetan (Cefotetan at 64 μg/mL, Acinetobacter baumannii ATCC 19606): >256 µg/mL | CBD MIC with Cefotetan (Cefotetan at 128 μg/mL): >32 µg/mL | CBD MIC with Cefotetan (Cefotetan at 128 μg/mL, Acinetobacter baumannii ATCC 19606): >256 µg/mL | CBD MIC with Ceftazidime (Ceftazidime at 0.015 μg/mL as headed in Table 64, Acinetobacter baumannii ATCC 19606): >256 µg/mL | CBD MIC with Ceftazidime (Ceftazidime at 0.031 μg/mL as headed in Table 64, Acinetobacter baumannii ATCC 19606): >256 µg/mL | CBD MIC with Ceftazidime (Ceftazidime at 0.062 μg/mL as headed in Table 64, Acinetobacter baumannii ATCC 19606): >256 µg/mL | CBD MIC with Ceftazidime (Ceftazidime at 0.25 μg/mL as headed in Table 64, Acinetobacter baumannii ATCC 19606): 16 µg/mL | CBD MIC with Ceftazidime (Ceftazidime at 0.5 μg/mL (Table 66), Acinetobacter baumannii ATCC 19606): >32 µg/mL | CBD MIC with Ceftazidime (Ceftazidime at 0.5 μg/mL as headed in Table 64, Acinetobacter baumannii ATCC 19606): 0.001 µg/mL | CBD MIC with Ceftazidime (Ceftazidime at 1 μg/mL (Table 66), Acinetobacter baumannii ATCC 19606): >32 µg/mL | CBD MIC with Ceftazidime (Ceftazidime at 2 μg/mL (Table 66), Acinetobacter baumannii ATCC 19606): >32 µg/mL | CBD MIC with Ceftazidime (Ceftazidime at 4 μg/mL (Table 66), Acinetobacter baumannii ATCC 19606): 32 µg/mL | CBD MIC with Ceftazidime (Ceftazidime at 8 μg/mL (Table 66), Acinetobacter baumannii ATCC 19606): 16 µg/mL | CBD MIC with Ceftazidime (Ceftazidime at 16 μg/mL (Table 66), Acinetobacter baumannii ATCC 19606): 0.001 µg/mL | CBD MIC with Ceftazidime (Ceftazidime at […] as headed in Table 64, Acinetobacter baumannii ATCC 19606): 32 µg/mL | CBD MIC with Colistin (Colistin at 0.031 μg/mL, Acinetobacter baumannii ATCC 19606): 4 µg/mL | CBD MIC with Colistin (Colistin at 0.062 μg/mL, Acinetobacter baumannii ATCC 19606): 2 µg/mL | CBD MIC with Colistin (Colistin at 0.25 μg/mL, Acinetobacter baumannii ATCC 19606): 1 µg/mL | CBD MIC with Colistin (Colistin at 1 μg/mL, Acinetobacter baumannii ATCC 19606): 0.001 µg/mL | CBD MIC with Colistin (Colistin at […], Acinetobacter baumannii ATCC 19606): 1 µg/mL | activity of cannabidiol in combination with Polymyxin B (Example 1): effective | Average FICI score (Example 1, GN_034, cannabidiol + MCC_006636 (Polymyxin B)): 0.135 | Synergy (Example 1, GN_034, cannabidiol + MCC_006636 (Polymyxin B), synergy when FICI≤0.5): YES | activity of cannabidiol combined with cefuroxime (Example 2): effective | CBD MIC with Cefuroxime at concentration 4 μg/mL (Example 2, GN_034): >256 µg/mL | CBD MIC with Cefuroxime at concentration 8 μg/mL (Example 2, GN_034): >256 µg/mL | CBD MIC with Cefuroxime at concentration 16 μg/mL (Example 2, GN_034): 32 µg/mL | CBD MIC with Cefuroxime at concentration 64 μg/mL (Example 2, GN_034): 0.0625 µg/mL | CBD MIC with Cefuroxime at concentration 128 μg/mL (Example 2, GN_034): 0.9766 ng/mL | CBD MIC with Cefuroxime at concentration 32 μg/mL (Example 2, GN_034, listed as CBD): 16 µg/mL and 32 µg/mL | activity of cannabidiol combined with colistin (Example 3): effective | CBD MIC with Colistin at concentration 0.03125 μg/mL (Example 3, GN_034): 4 µg/mL | CBD MIC with Colistin at concentration 0.0625 μg/mL (Example 3, GN_034): 2 µg/mL | CBD MIC with Colistin at concentration 0.25 μg/mL (Example 3, GN_034): 1 µg/mL | CBD MIC with Colistin at concentration 1 μg/mL (Example 3, GN_034): 0.9766 ng/mL | CBD MIC with Colistin at concentration […] (Example 3, GN_034): 1 µg/mL | activity of cannabidiol combined with octapeptin MCC_006442 (Example 4): effective | activity of cannabidiol combined with aztreonam (Example 5): effective | activity of cannabidiol combined with cefepime (Example 5): effective | CBD MIC with Aztreonam at concentration 0.5 μg/mL (Example 5, GN_034): >256 µg/mL | CBD MIC with Aztreonam at concentration 1 μg/mL (Example 5, GN_034): >256 µg/mL | CBD MIC with Aztreonam at concentration 2 μg/mL (Example 5, GN_034): >256 µg/mL | CBD MIC with Aztreonam at concentration 4 μg/mL (Example 5, GN_034): 32 µg/mL | CBD MIC with Aztreonam at concentration 8 μg/mL (Example 5, GN_034): 32 µg/mL | CBD MIC with Aztreonam at concentration 16 μg/mL (Example 5, GN_034): 0.9766 ng/mL | CBD MIC with Cefepime at concentration 0.25 μg/mL (Example 5, GN_034): >256 µg/mL | CBD MIC with Cefepime at concentration 0.5 μg/mL (Example 5, GN_034): >256 µg/mL | CBD MIC with Cefepime at concentration 1 μg/mL (Example 5, GN_034): >256 µg/mL | CBD MIC with Cefepime at concentration 2 μg/mL (Example 5, GN_034): >256 µg/mL | CBD MIC with Cefepime at concentration 4 μg/mL (Example 5, GN_034): 32 µg/mL | CBD MIC with Cefepime at concentration 8 μg/mL (Example 5, GN_034): 16 µg/mL | activity of cannabidiol combined with Polymyxin B (Example 6): effective | CBD MIC with Polymyxin B at concentration 0.015625 μg/mL (Example 6, GN_034): >256 µg/mL | CBD MIC with Polymyxin B at concentration 0.03125 μg/mL (Example 6, GN_034): >256 µg/mL | CBD MIC with Polymyxin B at concentration 0.0625 μg/mL (Example 6, GN_034): >256 µg/mL | CBD MIC with Polymyxin B at concentration 0.5 μg/mL (Example 6, GN_034): 0.9766 ng/mL | CBD MIC with Polymyxin B at concentration 0.25 μg/mL [1]: 8 µg/mL and 4 µg/mL | CBD MIC with Polymyxin B at concentration […] [1]: 16 µg/mL and 8 µg/mL | activity of cannabidiol in combination with octapeptin MCC_006442 (Example 7): effective | activity of cannabidiol combined with cefuroxime (Example 12): effective | activity of cannabidiol combined with colistin (Example 14): effective | activity of cannabidiol combined with octapeptin MCC_006442 (Example 15): effective | activity of cannabidiol combined with aztreonam (Example 18): effective | activity of cannabidiol combined with cefepime (Example 19): effective | activity of cannabidiol combined with octapeptin C4 (Example 21): effective | activity of cannabidiol in combination with Spero Potentiator SPR741 (Example 22): effective | activity of cannabidiol in combination with Spero SPR206 (Example 22): effective | activity of cannabidiol in combination with octapeptin FADDI-287 (Example 23): effective | activity of cannabidiol in combination with MCC_8980 (Example 24): effective | CBD MIC with Octapeptin C4 (Octapeptin C4 at 2 μg/mL, listed as CBD): 16 µg/mL | CBD MIC with Spero SPR206 (Spero SPR206 at 1 μg/mL, 3rd of 3 experiments, listed as CBD): 0.5 µg/mL | CBD MIC with Ticarcillin (Ticarcillin at 16 μg/mL, Acinetobacter baumannii ATCC 19606): 1 ng/mL | CBD MIC with Ticarcillin (Ticarcillin at 32 μg/mL, Acinetobacter baumannii ATCC 19606): 1 ng/mL | CBD MIC with Ticarcillin (Ticarcillin at 64 μg/mL, Acinetobacter baumannii ATCC 19606): 1 ng/mL
